# Like-named read-outs stand apart in the source and are kept apart here.
# Key:
# Assay type in all cases: cell-based
# [1] = system: human peripheral blood lymphocytes; test: lymphocyte growth inhibition assay ([3H]-thymidine incorporation) in chemically defined medium; conditions: for IC50: Homo sapiens, Lymphocyte, read-out: Amount Required to Inhibit Growth by 50%
# Description: The medium is also described in the specification above. Various concentrations of amino acids can be used in the medium to determine the effect on growth or growth inhibition.
# Human peripheral blood was collected from a group of patients in the clinic. […] Experiments were conducted in 96 well microtite plates. Triplicate samples were run in all experiments. […] For reversal of toxicity CoQ10 was added at a concentration of 0.5 μg/ml, and the patient's own plasma at a concentration of 0.1%. All chemicals were obtained from Sigma Chemical Corporation. […] Cells were then pulsed with 10 μl [^3H]-thymidine (0.29×10^-6M final concentration; specific activity […]). Twenty-four hours later, cells were harvested using an Inotech Cell Harvester. Radioactive incorporation was measured using a Packard Matrix 96 Beta Counter.
# human lymphocytes = test: lymphocyte response to varied culture medium components
# Description: Culture medium suitable for the growth of human lymphocytes is prepared as follows: To 50 ml of medium buffer 72 mg glucose is added, 1 ml amino acid supplement, 1 ml of a 16.5 mg/ml pyruvate: 2.64 mg/ml cysteine solution, 1 ml of a 1.4 mg/ml choline chloride; 1.8 mg/ml inositol solution, 1 ml of the above indicated vitamin supplement, and 1 ml of a 135 μg/ml adenine solution. The pH is adjusted with dilute NaOH to 7.6. Supplements of the following are then added: 1 ml of the antibiotic supplement, 0.5 ml of a 22.2 mg/ml calcium chloride solution, 0.5 ml of a 24 mg/ml magnesium sulfate solution, 1 ml of a solution of 0.278 mg/ml ferrous sulfate in 0.149 mg/ml EDTA. Deionized water is added to a final volume of 100 ml and the medium is filtered through Nalgene membrane filter units for sterilization. After filtration 0.2 ml of a 1 mg/ml sterile solution of phytohemagglutinin (PHA) is added to each 100 ml of media. PHA is obtained from Sigma Chemical Co. in 5 mg quantities and is diluted with sterile, deionized water.
# Accordingly, a culture medium suitable for determining the growth or other responses of lymphocytes comprises a serum-free, buffered (pH 7.6) solution in deionized water comprises per liter of solution the following components as described in Table 1:
# The components of the culture medium of Table 1 can be varied. In general, effective amounts of the components are used and can vary widely for the various growth assays of the invention and for individual patients. An effective amount of a component, as used herein, is an amount which will obtain a desired response from the patient. […] For most patients and assays the following ranges of components are satisfactory. The precise amounts of the components to provide an effective response can be determined by simple experimentation with the culture medium.
# The following is an example of a lymphocyte assay: Previously sterilized 96 well microtiter plates (Corning) are used in this assay procedure. 0.2 milliliters of the culture medium is added to each well. Where necessary, variable supplements up to 10 μl may be added to each tube, or a smaller volume of an appropriately higher concentration of the medium can be added to the tubes and supplements then added to make a final volume of 0.2 ml. The assay is then inoculated with 10 μl of the diluted lymphocyte suspension (22,000 lymphocytes).
# Incubation. The plates are incubated for 4 days at 37° C. in a 5% carbon dioxide atmosphere saturated with water vapor. […]
# Harvesting. […] The filter papers are dried for 5 minutes in a drying oven at 120° C. and then counted on a Matrix 96 Beta Counter (Packard).
# [2] = system: human peripheral blood lymphocytes; test: reversal of Lipitor (statin) toxicity in the lymphocyte culture assay; conditions: Lipitor present; CoQ10 0.5 μg/ml, patient's own plasma 0.1%; all subjects
# Text: The present invention also provides a composition comprised in the plasma that has the ability to ameliorate the toxicity of metabolic inhibitors such as the statins. […] It is contemplated that the plasma composition may comprise at least one peptide, a polypeptide, a protein or a small molecule which is associated with or bound to at least one peptide, polypeptide, or protein. The plasma composition may also comprise a lipid moiety, and/or a carbohydrate moiety and/or a nucleic acid component. As the plasma composition is heat-labile, it is contemplated to comprise at least one heat-labile peptide, polypeptide, or protein that may additionally be associated with or bound to at least one small molecule which may be a lipid moiety, and/or a carbohydrate moiety and/or a nucleic acid moiety.
# The medium used in this study was the same as described previously (See U.S. Pat. No. 4,499,064, herein expressly incorporated by reference) except that the concentration the amino acids used was increased five fold. The medium is also described in the specification above. […]
# Human peripheral blood was collected from a group of patients in the clinic. Lymphocytes were isolated as described (Shive, 1986), counted in a Coulter Counter, and inoculated into the medium at a concentration of 110,000 cells per ml. […] Radioactive incorporation was measured using a Packard Matrix 96 Beta Counter. […]
# [3] = patients' lymphocytes, 4 days incubation then 24 h [3H]-thymidine pulse
# [4] = at concentrations of up to 0.2 mg/ml
smiles,measurement,setting,value
"CC(C)c1c(C(=O)Nc2ccccc2)c(-c2ccccc2)c(-c2ccc(F)cc2)n1CC[C@@H](O)C[C@@H](O)CC(=O)O [Lipitor, Atorvastatin]",IC50,[1]; [3],< 0.1 mg/L
CN1C(=O)CN=C(c2ccccc2)c2cc(Cl)ccc21 [Diazepam],IC50,[1],20 mg/L
Cn1c(=O)c2c(ncn2C)n(C)c1=O [Caffeine],IC50,[1]; [3],77.6 mg/L
CC1=C(/C=C/C(C)=C/C=C/C(C)=C/CO)C(C)(C)CCC1 [Retanol],IC50,[1]; [3],0.5 mg/L
CCC1(c2ccccc2)C(=O)NC(=O)NC1=O [phenobarbitol],toxicity in lymphocytes,[1],did not show toxicity
O[C@H]1[C@H](O)[C@@H](O)[C@H](O)[C@@H](O)[C@H]1O [Inositol],Emax at 0.018 µg/mL,"human lymphocytes; Homo sapiens, Lymphocyte, inositol 0.018 mg/l in medium, read-out: lymphocyte response, % of maximal response",~70%
same,Emax at 0.18 µg/mL,"human lymphocytes; Homo sapiens, Lymphocyte, inositol 0.18 mg/l in medium, read-out: lymphocyte response, % of maximal response",90 to 100%
N[C@H]1C(O)O[C@H](CO)[C@@H](O)[C@@H]1O (stereo partly drawn) [glucoseamine],toxicity in lymphocytes,[1]; [4],did not show toxicity
Cn1c(=O)c2[nH]cnc2n(C)c1=O [Theophyline],IC50,[1]; [3],30 mg/L
NNC(=O)c1ccncc1 [Isoniazid],IC50,[1]; [3],548 mg/L
"CC[C@H](C)C(=O)O[C@H]1C[C@@H](C)C=C2C=C[C@H](C)[C@H](CC[C@@H]3C[C@@H](O)CC(=O)O3)[C@H]21 [Mevacor, Lovastatin]",IC50,[1]; [3],< 0.1 mg/L
"COC1=C(OC)C(=O)C(C/C=C(\C)CC/C=C(\C)CC/C=C(\C)CC/C=C(\C)CC/C=C(\C)CC/C=C(\C)CC/C=C(\C)CC/C=C(\C)CC/C=C(\C)CCC=C(C)C)=C(C)C1=O [CoQ10, Co enzyme Q10]",reversal of Lipitor toxicity,[2],"offers some protection, but it is not totally effective alone"
"CC[C@H](C)C(=O)O[C@H]1C[C@H](O)C=C2C=C[C@H](C)[C@H](CC[C@@H](O)C[C@@H](O)CC(=O)O)[C@H]21 [Pravachol, Pravastatin sodium]",IC50,[1]; [3],< 0.1 mg/L
"CCC(C)(C)C(=O)O[C@H]1C[C@@H](C)C=C2C=C[C@H](C)[C@H](CC[C@@H]3C[C@@H](O)CC(=O)O3)[C@H]21 [Zocor, Simvastatin]",IC50,[1]; [3],< 0.1 mg/L
Cc1nnc2n1-c1ccc(Cl)cc1C(c1ccccc1Cl)=NC2 [triazolam],toxicity in lymphocytes,[1],did not show toxicity
N[C@@H](CCC(=O)O)C(=O)[O-].[Na+] [Monosodium Glutamate],IC50,[1],7500 mg/L
[Al] [Aluminum],Amount Required to Inhibit Growth by 50%,[1]; [3],0.005 mg/mL
"CCCC(CCC)C(=O)O [Valproic Acid (Depakote), Valproic Acid]",IC50,"[1]; patients' lymphocytes, 4 days incubation then 24 h [3H]-thymidine pulse, unit printed μg/ml",0.4 to 1.2 mg/L
O=C(O)c1ccccc1O [Salicylate],Amount Required to Inhibit Growth by 50%,[1]; [3],0.005 mg/mL
Nc1ncnc2nc[nH]c12 [Adenine],concentration in culture medium that is toxic to lymphocytes,"human lymphocytes; medium of Table 1, component varied",135 µg/mL
CCO [Ethanol],IC50,[1]; [3],10000 mg/L
CN(Cc1cnc2nc(N)nc(N)c2n1)c1ccc(C(=O)N[C@@H](CCC(=O)O)C(=O)O)cc1 [Methothrexate],Amount Required to Inhibit Growth by 50%,[1]; [3],<0.00002 mg/mL
CC(=O)C(=O)O [Pyruvate],concentration in culture medium that is toxic to lymphocytes,"human lymphocytes; human, 4 days, pH 7.6",1650 µg/mL
NCC1(CC(=O)O)CCCCC1 [neuronton],toxicity in lymphocytes,[1]; [4],did not show toxicity

# From patent publication US6723527B2, “Methods for determining toxicity reversing agents” (Board of Regents, The University of Texas System, priority 2001, dated 2004)
